Measured values reported in ChEMBL document CHEMBL4043226, “Design, synthesis and biological evaluation of benzamide and phenyltetrazole derivatives with amide and urea linkers as BCRP inhibitors” (Bioorg Med Chem Lett, 2017).

Columns and labels:
[1] = Resistance index, ratio of mitoxantrone IC50 for human H460/MX20 cells to mitoxantrone IC50 for human H460 cells at 10 uM (reference value: 28.66)
[2] = Resistance index, ratio of mitoxantrone IC50 for human H460/MX20 cells to mitoxantrone IC50 for human H460 cells at 3 uM (reference value: 28.66)
[3] = Resistance index, ratio of mitoxantrone IC50 for human H460/MX20 cells to mitoxantrone IC50 for human H460 cells at 1 uM (reference value: 28.66)
[4] = Cytotoxicity against human NCI-H460/MX20 cells after 72 hrs by MTT assay; format: cell-based; conditions: NCI-H460/MX20, 72 h
[5] = test system: NCI-H460; assay: Cytotoxicity against human H460 cells after 72 hrs by MTT assay; format: cell-based; conditions: NCI-H460, 72 h
[6] = molecular target: T1, Broad substrate specificity ATP-binding cassette transporter ABCG2 (Homo sapiens, UniProt Q9UNQ0); assay: Inhibition of ABCG2 (unknown origin) expressed in high five insect cell membrane vesicles assessed as reduction in BCRP ATPase activity preincubated for 3 mins followed by ATP addition measured for 20 mins
T1 sequence (Q9UNQ0 whole entry): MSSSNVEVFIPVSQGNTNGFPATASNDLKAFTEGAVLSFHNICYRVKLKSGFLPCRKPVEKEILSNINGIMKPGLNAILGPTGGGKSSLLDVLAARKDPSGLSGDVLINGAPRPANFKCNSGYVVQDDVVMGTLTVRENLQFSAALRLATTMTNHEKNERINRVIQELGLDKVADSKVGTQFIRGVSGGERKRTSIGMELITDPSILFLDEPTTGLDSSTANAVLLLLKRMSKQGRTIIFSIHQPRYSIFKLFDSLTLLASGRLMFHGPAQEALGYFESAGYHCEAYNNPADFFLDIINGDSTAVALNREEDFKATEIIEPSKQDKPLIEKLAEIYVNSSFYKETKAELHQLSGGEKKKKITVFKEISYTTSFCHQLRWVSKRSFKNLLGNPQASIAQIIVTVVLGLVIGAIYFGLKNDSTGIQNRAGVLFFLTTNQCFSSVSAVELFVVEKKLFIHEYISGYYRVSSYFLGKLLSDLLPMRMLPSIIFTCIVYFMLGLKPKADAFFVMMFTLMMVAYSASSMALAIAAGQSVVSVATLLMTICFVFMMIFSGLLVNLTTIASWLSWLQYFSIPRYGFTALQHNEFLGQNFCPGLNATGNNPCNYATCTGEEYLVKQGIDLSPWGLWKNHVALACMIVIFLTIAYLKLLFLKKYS

[7] = molecular target: T2, ABCG2 (BCRP) (Homo sapiens, UniProt Q9UNQ0); assay: Activation of ABCG2 (unknown origin) expressed in high five insect cell membrane vesicles assessed as induction of basal BCRP ATPase activity at 10 uM preincubated for 3 mins followed by ATP addition measured for 20 mins relative to control; conditions: High Five insect cell membrane vesicles expressing ABCG2, read-out: FC
T2 sequence (Q9UNQ0 whole entry): T1 sequence (Q9UNQ0 whole entry)

[8] = Inhibition of ABCG2 in human H460/MX20 cells assessed as potentiation of mitoxantrone induced antiproliferative activity by measuring mitoxantrone IC50 at 10 uM preincubated for 2 hrs followed by mitoxantrone addition measured after 72 hrs by MTT assay (reference value: 6.161 +/- 0.172 microM)
[9] = Inhibition of ABCG2 in human H460/MX20 cells assessed as potentiation of mitoxantrone induced antiproliferative activity by measuring mitoxantrone IC50 at 1 uM preincubated for 2 hrs followed by mitoxantrone addition measured after 72 hrs by MTT assay (reference value: 6.161 +/- 0.172 microM)
[10] = Inhibition of ABCG2 in human H460/MX20 cells assessed as potentiation of mitoxantrone induced antiproliferative activity by measuring mitoxantrone IC50 at 3 uM preincubated for 2 hrs followed by mitoxantrone addition measured after 72 hrs by MTT assay (reference value: 6.161 +/- 0.172 microM)
[11] = molecular target: T1, Broad substrate specificity ATP-binding cassette transporter ABCG2; assay: Inhibition of ABCG2 (unknown origin) expressed in high five insect cell membrane vesicles assessed as reduction in basal BCRP ATPase activity up to 30 uM preincubated for 3 mins followed by ATP addition measured for 20 mins relative to control

inhibition (INH) [6] | fold induction at 20 min, 10 µM [7] | fold change (FC) [11] | SMILES | Ratio IC50 [1] | Ratio IC50 [2] | Ratio IC50 [3] | IC50 [4] | IC50 [5] | IC50 [8] | IC50 [9] | IC50 [10]
– | – | – | COc1cccc(-n2nnc(-c3ccccc3NC(=O)Nc3ccc(NC(=O)CBr)cc3)n2)c1 | 2.2 | 2.71 | 3.71 | > 100 µM | > 100 µM | – | – | –
– | – | – | COc1cccc(-n2nnc(-c3ccccc3NC(=O)c3ccc(NC(=O)CBr)cc3)n2)c1 | 1.32 | 2.07 | 2.81 | > 100 µM | > 100 µM | – | – | –
Dose-dependent effect | 3.55 | – | CCCc1ccc(NC(=O)c2ccccc2NC(=O)Nc2cccc([N+](=O)[O-])c2)cc1 | 1.62 | 2.33 | 3.03 | > 100 µM | > 100 µM | 0.348 µM | – | –
– | – | – | COc1cccc(-n2nnc(-c3ccccc3NC(=O)c3ccc(NC(C)=O)cc3)n2)c1 | 5.58 | 6.16 | 6.34 | > 100 µM | > 100 µM | – | – | –
– | – | – | COc1cccc(-n2nnc(-c3ccccc3NC(=O)Nc3ccc(N=C=S)cc3)n2)c1 | 2.56 | 3.1 | 7.05 | > 100 µM | > 100 µM | 0.55 µM | 1.515 µM | –
– | – | – | CCCc1ccc(NC(=O)c2ccccc2NC(=O)c2ccc(OC)cc2)cc1 | 7.97 | 10 | 13.1 | > 100 µM | > 100 µM | – | 2.526 µM | 2.012 µM
– | – | – | COc1ccc(NC(=O)Nc2ccccc2-c2nnn(-c3ccc(OC)cc3)n2)cc1 | 1.56 | 1.78 | 2.06 | 57.4 µM | 52.5 µM | 0.355 µM | – | 0.382 µM
– | – | – | CCCc1ccc(NC(=O)c2ccccc2NC(=O)c2cccc([N+](=O)[O-])c2)cc1 | 2.38 | 3.38 | 3.65 | > 100 µM | > 100 µM | 0.512 µM | 0.785 µM | 0.727 µM
– | – | – | COc1ccc(-n2nnc(-c3ccccc3NC(=O)Nc3ccc([N+](=O)[O-])cc3)n2)cc1 | 1.54 | 2.52 | 3.34 | 28.5 µM | 21.7 µM | – | – | –
– | – | – | COc1cccc(-n2nnc(-c3ccccc3NC(=O)c3ccc(N=[N+]=[N-])cc3)n2)c1 | 5.89 | 6.98 | 7.51 | 21.5 µM | 20.3 µM | – | – | –
– | – | – | COc1cccc(-n2nnc(-c3ccccc3NC(=O)c3cccc([N+](=O)[O-])c3)n2)c1 | 4.03 | 6.47 | 8.38 | 25.4 µM | 19.9 µM | – | – | 1.39 µM
– | – | – | COc1ccc2c3c([nH]c2c1)[C@H](C=C(C)C)N1C(=O)[C@@H]2CCCN2C(=O)[C@@H]1C3 [FUMITREMORGIN] | 1.49 | 2.1 | 2.85 | – | – | 0.321 µM | – | –
– | – | – | COc1cccc(-n2nnc(-c3ccccc3NC(=O)Nc3cccc([N+](=O)[O-])c3)n2)c1 | – | – | – | > 100 µM | > 100 µM | – | – | –
– | – | – | CCCc1ccc(NC(=O)c2ccccc2NC(=O)Nc2ccc(OC)cc2)cc1 | 4.58 | 10.12 | 15.68 | > 100 µM | > 100 µM | – | – | –
– | – | – | COc1cccc(-n2nnc(-c3ccccc3NC(=O)Nc3ccccc3[N+](=O)[O-])n2)c1 | 4.1 | 4.55 | 5.45 | > 100 µM | > 100 µM | – | 1.172 µM | –
– | – | – | CCCc1ccc(NC(=O)c2ccccc2NC(=O)c2ccccc2[N+](=O)[O-])cc1 | 7.7 | 9.36 | 11.75 | > 100 µM | > 100 µM | – | – | –
– | – | – | COc1ccc(-n2nnc(-c3ccccc3NC(=O)c3ccc([N+](=O)[O-])cc3)n2)cc1 | 1.76 | 2.49 | 2.73 | 27.4 µM | 24.7 µM | – | – | –
Dose-dependent effect | 1.94 | – | COc1cccc(-n2nnc(-c3ccccc3NC(=O)Nc3ccc([N+](=O)[O-])cc3)n2)c1 | 1.87 | 2.53 | 3.87 | > 100 µM | > 100 µM | – | 0.832 µM | –
– | – | – | COc1cccc(-n2nnc(-c3ccccc3NC(=O)Nc3ccc(N=[N+]=[N-])cc3)n2)c1 | 3.19 | 3.21 | 4.25 | > 100 µM | > 100 µM | 0.685 µM | – | –
– | – | – | CCCc1ccc(C(=O)Nc2ccccc2-c2nnn(-c3cccc(OC)c3)n2)cc1 | 0.61 | 0.96 | 1.65 | 40.6 µM | 27 µM | – | – | 0.207 µM
– | – | – | COc1ccc(C(=O)Nc2ccccc2-c2nnn(-c3ccc(OC)cc3)n2)cc1 | 2.29 | 2.35 | 3.47 | > 100 µM | > 100 µM | – | – | –
– | – | – | COc1cccc(-n2nnc(-c3ccccc3NC(=O)c3ccccc3[N+](=O)[O-])n2)c1 | 5.12 | 6.14 | 8.74 | 44.7 µM | 38.9 µM | – | – | 1.32 µM
– | – | – | CCCc1ccc(NC(=O)c2ccccc2NC(=O)Nc2ccc(Br)cc2)cc1 | 4.43 | 9.87 | 12.35 | > 100 µM | > 100 µM | – | – | –
– | – | – | COc1cccc(-n2nnc(-c3ccccc3NC(=O)Nc3ccc(NC(C)=O)cc3)n2)c1 | 1.51 | 2.11 | 2.92 | > 100 µM | > 100 µM | – | – | 0.454 µM
– | – | – | COc1cccc(-n2nnc(-c3ccccc3NC(=O)c3ccc([N+](=O)[O-])cc3)n2)c1 | 1.43 | 1.8 | 2.72 | > 100 µM | > 100 µM | 0.307 µM | – | –
– | – | – | COc1cccc(-n2nnc(-c3ccccc3NC(=O)c3ccc(N=C=S)cc3)n2)c1 | 4.43 | 4.88 | 5.68 | 59 µM | 44.7 µM | – | 1.221 µM | –
– | – | – | O=C(Nc1ccc([N+](=O)[O-])cc1)Nc1ccccc1C(=O)Nc1ccc(C(F)(F)F)cc1 | 2.12 | 2.81 | 3.31 | > 100 µM | > 100 µM | – | – | –
– | – | – | COc1cccc(-n2nnc(-c3ccccc3NC(=O)Nc3ccc(N)cc3)n2)c1 | 1.76 | 2.66 | 3.9 | > 100 µM | > 100 µM | – | – | 0.571 µM
Dose-dependent effect | – | 0.52 | COc1cccc(-n2nnc(-c3ccccc3NC(=O)c3ccc(N)cc3)n2)c1 | 1.39 | 2.28 | 2.55 | > 100 µM | > 100 µM | – | – | –
– | – | – | CCCc1ccc(NC(=O)c2ccccc2NC(=O)Nc2ccccc2[N+](=O)[O-])cc1 | 5.21 | 11.92 | 17.03 | > 100 µM | > 100 µM | – | – | –
